Values belong to the compound of their own block, whether it stands above or below them. The source made the active and inactive calls. The calls are words filed in the database; no cut-off is given here.
Experiments:
[1] = test system: 4T1; test: Antiproliferative activity against mouse 4T1 cells assessed as inhibition of cell growth measured after 24 hrs by Cell Counting Kit-8 assay; type: functional, cell-based; conditions: for IC50: 4T1, 24 h
[2] = test system: Panc02; test: Antiproliferative activity against Panc02 cells assessed as inhibition of cell growth upto 100 uM measured after 24 hrs by Cell Counting Kit-8 assay; type: functional, cell-based; conditions: Mus musculus
[3] = Prodrug conversion in Balb/c mouse implanted with mouse 4T1 cells assessed as carbon monoxide release in tumor by measuring red fluorescence at 10 mg/kg, iv incubated for 6 hrs followed by 1-Ac probe addition by hoechst dye based confocal laser scanning microscopic analysis; type: ADME, organism-based; conditions: in vivo
[4] = Prodrug conversion in PBS buffer assessed as formation of 3',6'-dimethyl-[1,1':2',1''-terphenyl]-4'-carbonitrile by measuring half life at pH 7.4 at 25 uM measured after 24 hrs in presence of H2O2 by HPLC analysis; type: ADME; conditions: pH 7.4, 24 h
[5] = Prodrug conversion in PBS buffer assessed as formation of oxidized intermediate by measuring half life at pH 7.4 at 25 uM measured after 24 hrs in presence of H2O2 by HPLC analysis; type: ADME; conditions: pH 7.4, 24 h
[6] = test system: 4T1; test: Antitumor activity against mouse 4T1 cells implanted in Balb/c mouse assessed as fold change in tumor volume at 10 mg/kg, iv administered on day 0,3, and 5 measured after 24 days (reference value: 25.5); type: functional; conditions: for fold change (FC): time 24 day; for Activity: time 24.0 day
[7] = Prodrug conversion in 1-Ac probed mouse 4T1 cells assessed as carbon monoxide release by measuring red fluorescence at 20 uM incubated for 6 hrs by hoechst dye based confocal laser scanning microscopic analysis; type: ADME, cell-based; conditions: 4t1, 6 h
[8] = test system: Panc02; test: Antiproliferative activity against Panc02 cells assessed as inhibition of cell growth measured after 24 hrs by Cell Counting Kit-8 assay; type: functional, cell-based; conditions: Mus musculus
[9] = Prodrug conversion in PBS buffer assessed as carbon monoxide release by measuring half life at pH 7.4 at 25 uM in presence of H2O2 by HPLC analysis; type: ADME; conditions: pH 7.4, 25 µM
[10] = Toxicity in Balb/c mouse implanted with mouse 4T1 cells assessed as change in body weight at 10 mg/kg, iv administered on day 0,3, and 5 measured after 24 days; type: organism-based; conditions: in vivo, 576 h, time 24 day
[11] = Prodrug conversion in PBS buffer assessed as carbon monoxide release by measuring half life at pH 7.4 at 25 uM by HPLC analysis; type: ADME; conditions: pH 7.4, 25 µM
[12] = Toxicity in Balb/c mouse implanted with mouse 4T1 cells assessed as increase in survival rate at 10 mg/kg, iv administered on day 0,3, and 5 measured after 24 days (reference value: 27 days); type: organism-based; conditions: in vivo, 576 h, time 24 day
[13] = test system: 4T1; test: Antiproliferative activity against mouse 4T1 cells assessed as inhibition of cell growth upto 100 uM measured after 24 hrs by Cell Counting Kit-8 assay; type: functional, cell-based

IC50 [1]: > 100 µM | Drug metabolism [3]: Metabolite_Detected | t1/2 [4]: 12 h | t1/2 [5]: 2 h | Drug metabolism [7]: Metabolite_Detected
SMILES: CCCCCS[C@H]1C(C#N)[C@]2(C)C(=O)[C@]1(C)C(c1ccccc1)=C2c1ccccc1 (stereo partly specified)
Activity [2]: inactive | fold change (FC) [6]: 16.5

SMILES: Cc1cc(C=O)c(C)c(-c2ccccc2)c1-c1ccccc1
Activity [1]: inactive | Activity [8]: inactive | Activity [6]: inactive

SMILES: CCCCCS[C@H]1C(C=O)[C@]2(C)C(=O)[C@]1(C)C(c1ccccc1)=C2c1ccccc1 (stereo partly specified)
t1/2 [9]: 3.4 h | IC50 [1]: 29.4 µM | Drug metabolism [3]: Metabolite_Detected | IC50 ([8]; Panc02, 24 h): 72.5 µM | fold change (FC) [6]: 9.4 | Activity [10]: Non-Toxic | t1/2 [11]: 81.6 h | Survival [12]: 42 days | Drug metabolism [7]: Metabolite_Detected

t1/2 [9]: 2.2 h | t1/2 [11]: 3 h
SMILES: Cc1ccc(S[C@H]2C(C=O)[C@]3(C)C(=O)[C@]2(C)C(c2ccccc2)=C3c2ccccc2)cc1 (stereo partly specified)

t1/2 [4]: 12 h | t1/2 [5]: 2 h
SMILES: Cc1ccc(S[C@H]2C(C#N)[C@]3(C)C(=O)[C@]2(C)C(c2ccccc2)=C3c2ccccc2)cc1 (stereo partly specified)

Drug metabolism [3]: Metabolite_Notdetected | Drug metabolism [7]: Metabolite_Notdetected
SMILES: CCCCCS[C@H]1C(C(=O)OC)[C@]2(C)C(=O)[C@]1(C)C(c1ccccc1)=C2c1ccccc1 (stereo partly specified)
Activity [1]: inactive | Activity [8]: inactive | Activity [6]: inactive

SMILES: Cc1cc(C#N)c(C)c(-c2ccccc2)c1-c1ccccc1
Activity [13]: inactive | Activity [2]: inactive | Activity [6]: inactive

Source: ChEMBL document CHEMBL5370662, “Reactive Oxygen Species-Activated Metal-Free Carbon Monoxide Prodrugs for Targeted Cancer Treatment” (J Med Chem, 2023)
